From patent publication US4889860A (Nova Pharmaceutical Corporation, priority 1987, dated 1989)
Read-outs that look alike come from different tables or passages of the source.

What was measured:
[1] = biological target: delta-type opioid receptor (Rattus norvegicus, UniProt P33533); assay: inhibition of specific [^3 H] DADLE binding to rat forebrain membranes
Protocol: (§1) The interaction of some of the novel compounds with mu and delta-type opioid receptors present in brain membranes was examined in vitro. […] DAGO (mu-type receptor) or [^3 H] DADLE (delta-type receptor) was determined using rat forebrain membranes. Computer assisted analysis (EBDA) was used to determine apparent Ki values for the various compounds.
(§2) Values represent the MEAN±S.E.M. of the Ki(nM) for each compound to inhibit specific binding of the indicated ligand to rat brain membranes. The values are from two-five separate experiments and were calculated according to the method of Cheng and Prusoff [Biochem. Pharmacol. 1973, 22, 3099-3108] together with the EBDA Program. Numbers in parentheses are the mean Hill coefficients for each compound to inhibit ligand binding.
as §2, with “two.div.seven” for “two-five”, “Prusoff” for “Prusoff [Biochem. Pharmacol. 1973, 22, 3099-3108]”, “program.” for “Program.”, “binding. N.D.=not determined” for “binding.”
(§3) The interaction of some of the novel compounds with mu, delta and kappa - type opioid receptors present in brain membranes was examined in vitro. […] DAGO (mu-type receptor), or [^3 H] DADLE (Delta-type receptor) using rat forebrain membranes and [^3 H] EKC (kappa-type receptor) using guiniea pig cerebellum membrane was determined. Computer assisted analysis (EBDA) was used to determine apparent Ki values for the various compounds.
(§4) The values represent the MEAN±S.E.M. of the Ki(nM) for each compound to inhibit specific binding of the indicated ligand. Each value represents the mean of three individual experiments performed on separate occasions.

mu-type opioid receptor = biological target: T1, mu-type opioid receptor (Rattus norvegicus, UniProt P33535); assay: inhibition of specific [^3 H] DAGO binding to rat forebrain membranes
T1 construct: using rat forebrain membranes; from tissue; host or cells: rat forebrain membranes
T1 sequence (P33535 whole entry): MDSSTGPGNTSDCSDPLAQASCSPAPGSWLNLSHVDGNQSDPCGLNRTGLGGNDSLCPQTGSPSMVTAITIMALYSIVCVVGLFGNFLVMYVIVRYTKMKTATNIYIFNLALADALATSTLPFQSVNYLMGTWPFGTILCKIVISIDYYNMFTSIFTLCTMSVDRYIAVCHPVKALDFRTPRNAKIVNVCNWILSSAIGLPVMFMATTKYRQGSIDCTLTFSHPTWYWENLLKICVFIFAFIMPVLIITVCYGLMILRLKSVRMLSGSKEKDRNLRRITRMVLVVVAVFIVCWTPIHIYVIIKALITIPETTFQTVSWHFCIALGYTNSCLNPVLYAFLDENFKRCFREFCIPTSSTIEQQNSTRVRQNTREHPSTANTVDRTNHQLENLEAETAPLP
Protocol: as §1, §2
as §2, with “two.div.seven” for “two-five”, “Prusoff” for “Prusoff [Biochem. Pharmacol. 1973, 22, 3099-3108]”, “program.” for “Program.”, “binding. N.D.=not determined” for “binding.”
as §3, §4

[2] = biological target: T2, kappa-type opioid receptor (Cavia porcellus, UniProt P41144); assay: inhibition of specific [^3 H] EKC binding to guinea pig cerebellum membrane
T2 construct: using guiniea pig cerebellum membrane; from tissue; host or cells: guinea pig cerebellum membranes
T2 sequence (P41144 whole entry): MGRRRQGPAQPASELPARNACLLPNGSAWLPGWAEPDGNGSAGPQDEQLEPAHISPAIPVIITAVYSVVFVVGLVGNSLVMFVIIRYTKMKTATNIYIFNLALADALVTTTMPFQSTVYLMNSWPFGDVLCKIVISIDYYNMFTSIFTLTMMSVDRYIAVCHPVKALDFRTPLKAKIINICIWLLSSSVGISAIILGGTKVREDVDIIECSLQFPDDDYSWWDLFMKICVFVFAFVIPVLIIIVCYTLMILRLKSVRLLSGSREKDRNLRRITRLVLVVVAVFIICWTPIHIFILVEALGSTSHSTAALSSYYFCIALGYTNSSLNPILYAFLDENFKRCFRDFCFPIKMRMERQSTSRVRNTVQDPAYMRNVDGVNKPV
Protocol: as §3, §4

[3] = test system: oxymorphonazine (OMZ)-induced analgesia; assay: antagonism of oxymorphonazine (OMZ)-induced analgesia (tail flick) in rats; assay type: in vivo, rat; conditions: S.C.; for ED50 / ED100: Rattus norvegicus, sc, Table 8; for ED50: read-out: ED 50, oxymorphonazine antagonism; for ED100: read-out: ED 100, oxymorphonazine antagonism; for Percent Antagonism at 1 Hr / Percent Antagonism at 1.5 Hr / Percent Antagonism at 2 Hr / Percent Antagonism at 3 Hr / Percent Antagonism at 4 Hr / Percent Antagonism at 6 Hr / Percent Antagonism at 8 Hr: dose tested (mg/kg): Naltrexone 0.5, Nalmefene 1.0, XI 10.0, XII 2.5, XIII 0.5, XIV 5.0
Protocol: The compound of Example XII was evaluated for its potency and duration in the antagonism of oxymorphonazine (OMZ)-induced analgesia. […] Data represent the mean SEM of 4-5 animals per group.
(Cowan A. Trendsin Pharmacology Science, 7:69-72, 1986) With this test the intracerebroventricular administration of bombesin produces a characteristic scratching response.

tail flick response = assay: radiant heat tail flick analgesia in rats; assay type: in vivo, rat
Protocol: The analgesic properties of the compounds prepared in accordance with Examples III and IV were evaluated in rats using the radiant heat and tail flick paradigm. […] Flick latencies in FIGS. 11-13 were determined at 30 minute intervals through 3.5 h and the data was expressed as a percentage of the maximum possible effect (% MPE). A 15 sec. cut-off latency was used to minimize tissue damage. The values shown are the mean values for 6 rats.
A 15 sec. cut-off latency was used to prevent tissue damage.
The analgesic properties of compounds XXII and XXIII were evaluated in rats using the writhing assay and tail flick paradigm. […] The writhing assay which uses a chemical stimulus to produce pain, is believed to be more sensitive to kappa agonist activity than other measures of analgesia which uses a heat stimulus (Dykstra, L.A. Behavioral Pharmacology: The Current Status, N.Y.: Allan R. Liss. Inc. 1985).

[4] = read-out: Ki, inhibition of specific [^3 H] DADLE binding, Tables 1 and 2, rat brain membranes, MEAN±S.E.M.
[5] = Ki, inhibition of specific [^3 H] DAGO binding, Tables 1 and 2, rat brain membranes, MEAN±S.E.M.
[6] = read-out: (Ki) nM, δ receptor (Rat Forebrain), Table 6, [^3 H] DADLE, mean of three experiments
[7] = (Ki) nM, μ receptor (Rat Forebrain), Table 6, [^3 H] DAGO, mean of three experiments

Sequence of delta-type opioid receptor (P33533 whole entry): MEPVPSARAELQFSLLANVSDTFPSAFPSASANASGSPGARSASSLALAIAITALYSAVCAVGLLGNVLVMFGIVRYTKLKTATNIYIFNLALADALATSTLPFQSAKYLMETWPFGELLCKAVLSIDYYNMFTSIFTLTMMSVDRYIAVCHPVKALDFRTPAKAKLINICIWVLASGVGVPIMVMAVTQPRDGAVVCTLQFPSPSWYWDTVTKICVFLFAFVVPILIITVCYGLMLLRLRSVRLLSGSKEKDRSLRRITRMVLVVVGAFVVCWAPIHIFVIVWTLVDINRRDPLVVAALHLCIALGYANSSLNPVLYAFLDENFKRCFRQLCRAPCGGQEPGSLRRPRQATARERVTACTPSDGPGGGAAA

CON=C1CC[C@@]2(O)[C@H]3Cc4ccc(O)c5c4[C@@]2(CCN3C)[C@H]1O5 [Example II, 6-Methyloximino-17-methyl-4,5 α-epoxy-3, 14-dihydroxymorphinan]
Ki [1, 4]: 3.44 ± 0.83 nM
Ki (mu-type opioid receptor; [5]): 0.97 ± 0.1 nM

ON=C1CC[C@@]2(O)[C@H]3Cc4ccc(O)c5c4[C@@]2(CCN3CC2CC2)[C@H]1O5 [Example IX, 6-Oximino-17-cyclopropylmethyl-4,5 α-epoxy-3, 14-dihydroxymorphinan]
Ki [1, 6]: 1.64 nM
Ki (mu-type opioid receptor; [7]): 0.24 nM
mean Hill coefficient, [^3 H] DAGO binding (mu-type opioid receptor; Tables 1 and 2, numbers in parentheses): 0.81
Ki (mu-type opioid receptor; Tables 1 and 2, rat brain membranes, MEAN±S.E.M., read-out: Ki, inhibition of specific [^3 H] DAGO binding): 0.24 ± 0.03 nM
fold more potent to inhibit specific [^3 H]DAGO binding (mu-type opioid receptor; than compound of Example X or XI, or naltrexone): 3 fold
Ki [2]: 2.05 nM

CON=C1CC[C@@]2(O)[C@H]3Cc4ccc(O)c5c4[C@@]2(CCN3CC2CC2)[C@H]1O5 [Example X, 6-Methyloximino-17-cyclopropylmethyl-4,5 α-epoxy-3, 14-dihydroxymorphinan]
Ki [1, 4]: 1.8 ± 0.22 nM
Ki (mu-type opioid receptor; [5]): 0.66 ± 0.06 nM

Oc1ccc2c3c1O[C@H]1C(=NOCc4ccccc4)CC[C@@]4(O)[C@@H](C2)N(CC2CC2)CC[C@]314 [Example XI, 6-Benzyloximino-17-cyclopropylmethyl-4, 5 α-epoxy-3, 14-dihydroxymorphinan]
ED50 [3]: 1.2 mg/kg
ED100 [3]: 13 mg/kg
Percent Antagonism at 1 Hr [3]: 72%
Percent Antagonism at 1.5 Hr [3]: 86%
Percent Antagonism at 2 Hr [3]: 91%
Percent Antagonism at 3 Hr [3]: 93%
Percent Antagonism at 4 Hr [3]: 103%
Percent Antagonism at 6 Hr [3]: 122%
Percent Antagonism at 8 Hr [3]: 64%
Ki [1, 6]: 0.87 nM
Ki [1, 4]: 0.7 ± 0.22 nM
Ki (mu-type opioid receptor; [7]): 0.55 nM
Ki (mu-type opioid receptor; [5]): 0.55 ± 0.12 nM

Cc1ccc(ON=C2CC[C@@]3(O)[C@H]4Cc5ccc(O)c6c5[C@@]3(CCN4CC3CC3)[C@H]2O6)cc1C [Example XIII, 6-[3,4-dimethylphenyl]oximino-17-cyclopropylmethyl-4,5α-epoxy-3,14-dihydroxymorphinan]
ED50 [3]: 0.09 mg/kg
ED100 [3]: 0.74 mg/kg
Percent Antagonism at 1 Hr [3]: 77%
Percent Antagonism at 1.5 Hr [3]: 72%
Percent Antagonism at 2 Hr [3]: 67%
Percent Antagonism at 3 Hr [3]: 79%
Percent Antagonism at 4 Hr [3]: 72%
Percent Antagonism at 6 Hr [3]: 71%
Percent Antagonism at 8 Hr [3]: 97%
Ki [1, 6]: 2.69 nM
Ki (mu-type opioid receptor; [7]): 1.64 nM

Oc1ccc2c3c1O[C@H]1C(=NOC4CCCc5ccccc54)CC[C@@]4(O)[C@@H](C2)N(CC2CC2)CC[C@]314 (stereo partly drawn) [Example XIV, 6-[1,2,3,4-tetrahydronaphth-1-yl]oximino-17-cyclopropylmethyl-4,5 α-epoxy-3,14-dihydroxymorphinan]
ED50 [3]: 0.02 mg/kg
ED100 [3]: 6.73 mg/kg
Percent Antagonism at 1 Hr [3]: 80%
Percent Antagonism at 1.5 Hr [3]: 84%
Percent Antagonism at 2 Hr [3]: 82%
Percent Antagonism at 3 Hr [3]: 84%
Percent Antagonism at 4 Hr [3]: 83%
Percent Antagonism at 6 Hr [3]: 41%
Percent Antagonism at 8 Hr [3]: 20%
Ki [1, 6]: 0.6 nM
Ki (mu-type opioid receptor; [7]): 2.76 nM
Ki [2]: 4.66 nM

Cc1cccc(ON=C2CC[C@@]3(O)[C@H]4Cc5ccc(O)c6c5[C@@]3(CCN4CC3CC3)[C@H]2O6)c1C [Example XV, 6-[2,3-dimethylphenyl]oximino-17-cyclopropylmethyl-4,5 α-epoxy-3,14-dihydroxymorphinan]
Ki [1, 6]: 1.23 nM
Ki (mu-type opioid receptor; [7]): 1.19 nM

Oc1ccc2c3c1O[C@H]1C(=NOc4ccc(C(F)(F)F)cc4)CC[C@@]4(O)[C@@H](C2)N(CC2CC2)CC[C@]314 [Example XVII, 6-[4-trifluoromethylphenyl]oximino-17-cyclopropylmethyl-4,5 α-epoxy-3,14-dihydroxymorphinan]
Ki [1, 6]: 34.4 nM
Ki (mu-type opioid receptor; [7]): 26.4 nM

CC(C)(C)ON=C1CC[C@@]2(O)[C@H]3Cc4ccc(O)c5c4[C@@]2(CCN3CC2CC2)[C@H]1O5 [Example XVI]
Ki [1, 6]: 0.41 nM
Ki (mu-type opioid receptor; [7]): 1.01 nM
Ki [2]: 7.39 nM

N=C(N)c1ccc(ON=C2CC[C@@]3(O)[C@H]4Cc5ccc(O)c6c5[C@@]3(CCN4CC3CC3)[C@H]2O6)cc1 [Example XX, 6-[4-iminoaminomethylphenyl]oximino-17-cyclopropylmethyl-4,5 α-epoxy-3,14-dihydroxymorphinan]
Ki [1, 6]: 1.67 nM
Ki (mu-type opioid receptor; read-out: (Ki) nM, μ receptor (Rat Forebrain), Table 6, [^3 H] DAGO, mean of three experiments): 0.73 nM
Ki ([2]; read-out: (Ki) nM, κ receptor (GP Cerebellum), Table 6, [^3 H] EKC, mean of three experiments): 0.64 nM

O=C1c2ccccc2C(=O)N1Cc1ccc(ON=C2CC[C@@]3(O)[C@H]4Cc5ccc(O)c6c5[C@@]3(CCN4CC3CC3)[C@H]2O6)cc1 [Example XXI, 6-[4-phthalimidomethylphenyl]oximino-17-cyclopropylmethyl-4,5 α-epoxy-3,14-dihydroxymorphinan]
Ki [1, 6]: 2.57 nM
Ki (mu-type opioid receptor; [7]): 7.35 nM
Ki [2]: 18 nM

NCc1ccc(ON=C2CC[C@@]3(O)[C@H]4Cc5ccc(O)c6c5[C@@]3(CCN4CC3CC3)[C@H]2O6)cc1 [Example XXIV, 6-[4-aminomethylphenyl]oximino-17-cyclopropylmethyl-4,5α-epoxy-3,14-dihydroxymorphinan]
Ki [1, 6]: 1 nM
Ki (mu-type opioid receptor; [7]): 0.34 nM
Ki [2]: 0.71 nM

Oc1ccc2c3c1O[C@H]1C(=NOC4CCCCC4)CC[C@@]4(O)[C@@H](C2)N(CC2CC2)CC[C@]314 [Example XXV, 6-cyclohexyloximino-17-cyclopropylmethyl-4,5 α-epoxy-3,14-dihydroxymorphinan]
Ki [1, 6]: 0.08 nM
Ki (mu-type opioid receptor; [7]): 1.1 nM
Ki [2]: 9.76 nM

Oc1ccc2c3c1O[C@H]1C(=NOC4CCCC4)CC[C@@]4(O)[C@@H](C2)N(CC2CC2)CC[C@]314 [Example XXVI, 6-cyclopentyloximino-17-cyclopropylmethyl-4,5 α-epoxy-3,14-dihydroxymorphinan]
Ki [1, 6]: 0.04 nM
Ki (mu-type opioid receptor; [7]): 0.52 nM
Ki [2]: 7.94 nM

Oc1ccc2c3c1O[C@H]1C(=NOC45CC6CC(CC(C6)C4)C5)CC[C@@]4(O)[C@@H](C2)N(CC2CC2)CC[C@]314 [Example XXVII, 6-[1-adamantyl]oximino-17-cyclopropylmethyl-4,5 α-epoxy-3,14-dihydroxymorphinan]
Ki [1, 6]: 2.63 nM
Ki (mu-type opioid receptor; [7]): 5.39 nM
Ki [2]: 6.41 nM

CN1CC[C@]23c4c5ccc(O)c4O[C@H]2[C@@H](O)C=C[C@H]3[C@H]1C5 [Morphine, morphine, reference compound]
ED50, tail flick analgesia (tail flick response; S.C., 30 min): 4.91 µmol/kg
dose producing approximately equal analgesia (tail flick response; S.C., tail flick, through 3.5 hr): ~10.5 µmol/kg
ED50, Antagonism of the Tail-Flick Response in the Rat (tail flick response; Table 7): 2.60 mg/kg
antagonism of tail-flick response to heat (tail flick response; rat): effectively antagonized the tail-flick response to a heat stimulus in the rat

Oc1ccc2c3c1O[C@H]1C(=NOc4ccccc4C(F)(F)F)CC[C@@]4(O)[C@@H](C2)N(CC2CC2)CC[C@]314 [XIX, 6-[2-trifluoromethylphenyl]oximino-17-cyclopropylmethyl-4,5 α-epoxy-3,14-dihydroxymorphinan]
Ki [1, 6]: 1.29 nM
Ki (mu-type opioid receptor; [7]): 3.77 nM

N#Cc1ccc(ON=C2CC[C@@]3(O)[C@H]4Cc5ccc(O)c6c5[C@@]3(CCN4CC3CC3)[C@H]2O6)cc1 [XVIII, 6-[4-cyanophenyl]oximino-17-cyclopropylmethyl-4,5α-epoxy-3,14-dihydroxymorphinan]
Ki [1, 6]: 1.64 nM
Ki (mu-type opioid receptor; [7]): 2.07 nM
Ki [2]: 12.9 nM
